{
  "source": "PubChem BioAssay AID1259409",
  "about": "(Chemical Carcinogenesis Research Information System (CCRIS), 2018)",
  "origin": "cited, not measured here",
  "test_system": "rodent chemically induced tumor inhibition, incidence and multiplicity",
  "test": "CCRIS tumor inhibitor studies",
  "conditions": "Species: RAT, Promoter: NONE USED",
  "note": "Values joined by “and” are separate entries in the source; they are usually repeats but may differ in a detail not shown here. Equal entries are not always repeated.",
  "data": [
    {"smiles": "CC1=CCC(C(C)(C)O)CC1O", "note": "(configuration not stated)", "values": [
      {"measurement": "tumour outcome (control, treated, inhibition, significance)", "setting": "Carcinogen: 7,12-DIMETHYLBENZ[A]ANTHRACENE, 57-97-6, Dose [Inhibitor]: 0, 1% IN DIET FOR 3 WK BEGINNING 2 WK PRIOR TO CARCINOGEN DOSE (STUDY DURATION: 20 WK), Route [Inhibitor]: ORAL, Strain/Sex: WISTAR/FEMALE, Target Tissue: Type of Lesion: MAMMARY GLAND: CARCINOMA, Dose [Carcinogen]: 50 MG/KG IN SESAME OIL ONCE", "value": "80%, 52%, 35%, not calculated and 98%, 84%, 14%, not significant"}
    ]},
    {"smiles": "CC(=O)[O-].CC(=O)[O-].O.O.[Zn+2]", "values": [
      {"measurement": "tumour outcome (control, treated, inhibition, significance)", "setting": "Carcinogen: CADMIUM CHLORIDE, 10108-64-2, Dose [Inhibitor]: 0.1 MMOL/KG IN 0.9% STERILE SALINE ADMINISTERED IN 3 SEPARATE DOSES AT 6 HR PRIOR TO, CONCURRENTLY WITH AND 18 HR POST C, Route [Inhibitor]: SUBCUTANEOUS, Strain/Sex: WISTAR/MALE, Target Tissue: Type of Lesion: PROSTATE GLAND: ADENOMA, Dose [Carcinogen]: 30 UMOL/KG IN 0.9% STERILE SALINE ONCE", "value": "7/30 (23%), 6/30 (20%), 13%, not calculated"},
      {"measurement": "tumour outcome (control, treated, inhibition, significance)", "setting": "Carcinogen: CADMIUM CHLORIDE, 10108-64-2, Dose [Inhibitor]: 0.3 MMOL/KG IN 0.9% STERILE SALINE ADMINISTERED IN 3 SEPARATE DOSES AT 6 HR PRIOR TO, CONCURRENTLY WITH AND 18 HR POST C, Route [Inhibitor]: SUBCUTANEOUS, Strain/Sex: WISTAR/MALE, Target Tissue: Type of Lesion: PROSTATE GLAND: ADENOMA, Dose [Carcinogen]: 30 UMOL/KG IN 0.9% STERILE SALINE ONCE", "value": "7/30 (23%), 5/28 (18%), 22%, not calculated"},
      {"measurement": "tumour outcome (control, treated, inhibition, significance)", "setting": "Carcinogen: CADMIUM CHLORIDE, 10108-64-2, Dose [Inhibitor]: 1.0 MMOL/KG IN 0.9% STERILE SALINE ADMINISTERED IN 3 SEPARATE DOSES AT 6 HR PRIOR TO, CONCURRENTLY WITH AND 18 HR POST C, Route [Inhibitor]: SUBCUTANEOUS, Strain/Sex: WISTAR/MALE, Target Tissue: Type of Lesion: PROSTATE GLAND: ADENOMA, Dose [Carcinogen]: 30 UMOL/KG IN 0.9% STERILE SALINE ONCE", "value": "11/26 (42%), 7/28 (25%), 40%, not calculated"},
      {"measurement": "tumour outcome (control, treated, inhibition, significance)", "setting": "Carcinogen: CADMIUM CHLORIDE, 10108-64-2, Dose [Inhibitor]: 100 PPM IN DRINKING WATER BEGINNING 2 WK PRIOR TO CARCINOGEN DOSE AND CONTINUING FOR DURATION OF STUDY (STUDY DURATION:, Route [Inhibitor]: ORAL, Strain/Sex: WISTAR/MALE, Target Tissue: Type of Lesion: PROSTATE GLAND: ADENOMA, Dose [Carcinogen]: 30 UMOL/KG IN 0.9% STERILE SALINE ONCE", "value": "7/30 (23%), 7/30 (23%), 0%"},
      {"measurement": "tumour outcome (control, treated, inhibition, significance)", "setting": "Carcinogen: CADMIUM(II) CHLORIDE, 10108-64-2, Dose [Inhibitor]: 0.1 MMOL/KG IN 0.9% STERILE SALINE ADMINISTERED IN 3 SEPARATE DOSES AT 6 HR PRIOR TO CARCINOGEN DOSE, CONCURRENTLY WITH, Route [Inhibitor]: SUBCUTANEOUS, Strain/Sex: WISTAR/MALE, Target Tissue: Type of Lesion: INJECTION SITE: SARCOMA OR EPIDERMAL TUMOR, Dose [Carcinogen]: 30 UMOL/KG IN 0.9% STERILE SALINE ONCE", "value": "13/30 (43%), 9/30 (30%), 30%, not calculated"},
      {"measurement": "tumour outcome (control, treated, inhibition, significance)", "setting": "Carcinogen: CADMIUM(II) CHLORIDE, 10108-64-2, Dose [Inhibitor]: 0.1 MMOL/KG IN 0.9% STERILE SALINE ADMINISTERED IN 3 SEPARATE DOSES AT 6 HR PRIOR TO CARCINOGEN DOSE, CONCURRENTLY WITH, Route [Inhibitor]: SUBCUTANEOUS, Strain/Sex: WISTAR/MALE, Target Tissue: Type of Lesion: TESTES: LEYDIG CELL ADENOMA OR MIXED SERTOLI-LEYDIG CELL TUMOR, Dose [Carcinogen]: 30 UMOL/KG IN 0.9% STERILE SALINE ONCE", "value": "22/30 (73%), 23/30 (77%), -5%, not calculated"},
      {"measurement": "tumour outcome (control, treated, inhibition, significance)", "setting": "Carcinogen: CADMIUM(II) CHLORIDE, 10108-64-2, Dose [Inhibitor]: 0.3 MMOL/KG IN 0.9% STERILE SALINE ADMINISTERED IN 3 SEPARATE DOSES AT 6 HR PRIOR TO CARCINOGEN DOSE, CONCURRENTLY WITH, Route [Inhibitor]: SUBCUTANEOUS, Strain/Sex: WISTAR/MALE, Target Tissue: Type of Lesion: INJECTION SITE: SARCOMA, Dose [Carcinogen]: 30 UMOL/KG IN 0.9% STERILE SALINE ONCE", "value": "13/30 (43%), 10/29 (34%), 21%, not calculated"},
      {"measurement": "tumour outcome (control, treated, inhibition, significance)", "setting": "Carcinogen: CADMIUM(II) CHLORIDE, 10108-64-2, Dose [Inhibitor]: 0.3 MMOL/KG IN 0.9% STERILE SALINE ADMINISTERED IN 3 SEPARATE DOSES AT 6 HR PRIOR TO CARCINOGEN DOSE, CONCURRENTLY WITH, Route [Inhibitor]: SUBCUTANEOUS, Strain/Sex: WISTAR/MALE, Target Tissue: Type of Lesion: TESTES: LEYDIG CELL ADENOMA, Dose [Carcinogen]: 30 UMOL/KG IN 0.9% STERILE SALINE ONCE", "value": "22/30 (73%), 14/29 (48%), 34%, not calculated"},
      {"measurement": "tumour outcome (control, treated, inhibition, significance)", "setting": "Carcinogen: CADMIUM(II) CHLORIDE, 10108-64-2, Dose [Inhibitor]: 1.0 MMOL/KG IN 0.9% STERILE SALINE ADMINISTERED IN 3 SEPARATE DOSES AT 6 HR PRIOR TO CARCINOGEN DOSE, CONCURRENTLY WITH, Route [Inhibitor]: SUBCUTANEOUS, Strain/Sex: WISTAR/MALE, Target Tissue: Type of Lesion: INJECTION SITE: SARCOMA OR HEMANGIOMA OR EPIDERMAL TUMOR, Dose [Carcinogen]: 30 UMOL/KG IN 0.9% STERILE SALINE ONCE", "value": "13/30 (43%), 9/29 (31%), 28%, not calculated"},
      {"measurement": "tumour outcome (control, treated, inhibition, significance)", "setting": "Carcinogen: CADMIUM(II) CHLORIDE, 10108-64-2, Dose [Inhibitor]: 1.0 MMOL/KG IN 0.9% STERILE SALINE ADMINISTERED IN 3 SEPARATE DOSES AT 6 HR PRIOR TO CARCINOGEN DOSE, CONCURRENTLY WITH, Route [Inhibitor]: SUBCUTANEOUS, Strain/Sex: WISTAR/MALE, Target Tissue: Type of Lesion: INJECTION SITE: SARCOMA, Dose [Carcinogen]: 30 UMOL/KG IN 0.9% STERILE SALINE ONCE", "value": "3/29 (10%), 1/29 (3%), 70%, not calculated"},
      {"measurement": "tumour outcome (control, treated, inhibition, significance)", "setting": "Carcinogen: CADMIUM(II) CHLORIDE, 10108-64-2, Dose [Inhibitor]: 1.0 MMOL/KG IN 0.9% STERILE SALINE ADMINISTERED IN 3 SEPARATE DOSES AT 6 HR PRIOR TO CARCINOGEN DOSE, CONCURRENTLY WITH, Route [Inhibitor]: SUBCUTANEOUS, Strain/Sex: WISTAR/MALE, Target Tissue: Type of Lesion: TESTES: LEYDIG CELL ADENOMA OR SEMINOMA, Dose [Carcinogen]: 30 UMOL/KG IN 0.9% STERILE SALINE ONCE", "value": "4/29 (14%), 7/30 (23%), -64%, not calculated"},
      {"measurement": "tumour outcome (control, treated, inhibition, significance)", "setting": "Carcinogen: CADMIUM(II) CHLORIDE, 10108-64-2, Dose [Inhibitor]: 1.0 MMOL/KG IN 0.9% STERILE SALINE ADMINISTERED IN 3 SEPARATE DOSES AT 6 HR PRIOR TO CARCINOGEN DOSE, CONCURRENTLY WITH, Route [Inhibitor]: SUBCUTANEOUS, Strain/Sex: WISTAR/MALE, Target Tissue: Type of Lesion: TESTES: LEYDIG CELL ADENOMA, Dose [Carcinogen]: 30 UMOL/KG IN 0.9% STERILE SALINE ONCE", "value": "22/30 (73%), 3/28 (11%), 85%, not calculated"},
      {"measurement": "tumour outcome (control, treated, inhibition, significance)", "setting": "Carcinogen: CADMIUM(II) CHLORIDE, 10108-64-2, Dose [Inhibitor]: 100 PPM IN DRINKING WATER BEGINNING 2 WK PRIOR TO CARCINOGEN DOSE AND CONTINUING FOR DURATION OF STUDY (STUDY DURATION:, Route [Inhibitor]: ORAL, Strain/Sex: WISTAR/MALE, Target Tissue: Type of Lesion: INJECTION SITE: SARCOMA AND FIBROMA, Dose [Carcinogen]: 30 UMOL/KG IN 0.9% STERILE SALINE ONCE", "value": "13/30 (43%), 1/30 (3%), 93%, not calculated"},
      {"measurement": "tumour outcome (control, treated, inhibition, significance)", "setting": "Carcinogen: CADMIUM(II) CHLORIDE, 10108-64-2, Dose [Inhibitor]: 100 PPM IN DRINKING WATER BEGINNING 2 WK PRIOR TO CARCINOGEN DOSE AND CONTINUING FOR DURATION OF STUDY (STUDY DURATION:, Route [Inhibitor]: ORAL, Strain/Sex: WISTAR/MALE, Target Tissue: Type of Lesion: TESTES: LEYDIG CELL ADENOMA, Dose [Carcinogen]: 30 UMOL/KG IN 0.9% STERILE SALINE ONCE", "value": "22/30 (73%), 25/30 (83%), -14%, not calculated"}
    ]},
    {"smiles": "N#C[SeH]", "values": [
      {"measurement": "tumour outcome (control, treated, inhibition, significance)", "setting": "Carcinogen: 7,12-DIMETHYLBENZ[A]ANTHRACENE, 57-97-6, Dose [Inhibitor]: 0, 2 PPM (AS SELENIUM) IN DIET BEGINNING 2 WK PRIOR TO CARCINOGEN DOSE AND CONTINUING FOR DURATION OF STUDY (STUDY DURAT, Route [Inhibitor]: ORAL, Strain/Sex: SPRAGUE-DAWLEY/FEMALE, Target Tissue: Type of Lesion: MAMMARY GLAND: ADENOCARCINOMA, Dose [Carcinogen]: 10 MG ONCE AT 55 D OF AGE", "value": "88%, 68%, 23%, not significant"},
      {"measurement": "tumour outcome (control, treated, inhibition, significance)", "setting": "Carcinogen: 7,12-DIMETHYLBENZ[A]ANTHRACENE, 57-97-6, Dose [Inhibitor]: 0, 3 PPM (AS SELENIUM) IN DIET BEGINNING 2 WK PRIOR TO CARCINOGEN DOSE AND CONTINUING FOR DURATION OF STUDY (STUDY DURAT, Route [Inhibitor]: ORAL, Strain/Sex: SPRAGUE-DAWLEY/FEMALE, Target Tissue: Type of Lesion: MAMMARY GLAND: ADENOCARCINOMA, Dose [Carcinogen]: 10 MG ONCE AT 55 D OF AGE", "value": "88%, 44%, 50%, p<0.05"}
    ]}
  ]
}
